{"source": "patent US20250170072A1", "about": "“NOVEL COMPOSITIONS FOR REDUCING METHANE PRODUCTION IN RUMINANT ANIMALS” (FUTUREFEED PTY LTD, priority 2022, published 2025)", "key": {"Bromoform in water": {"assay": "Bromoform in water", "type": "physicochemical", "settings": "deionised water", "procedure": "Manufactured synthetic CHBr3, 98% purity, and stabilized with 2-methyl-2-butene (Sigma-Aldrich, product no: 241032) was used for the preparation of the four excipients. The Corn Oil, Molasses and Water were made with similar protocols as per the Canola Oil in Example 4. Briefly, CHBr3 was dissolved and homogenised into either retail corn oil, molasses, or deionised water and homogenised by repeated inversion and left to stabilise overnight prior to achieve a concentration of 3.0±0.10 mg/g. Cyclodextrin was prepared as described previously (patent WO 96/14062, PCT AU95/00733). Briefly, CHBr3 was added to α-cyclodextrin (Sigma-Aldrich, product no: 779008) aqueous solution and mixed overnight. The solid was then separated, washed, then dried. The CHBr3 concentration of the dried powder was determined and then diluted with additional α-cyclodextrin to adjust the CHBr3 concentration to 3.0±0.10 mg/g. TGP, CH4, H2 and CO2 production, IVDDM, and VFA were determined using the protocol as described in Example 4."}, "rumen fluid": {"test_system": "rumen fluid", "settings": "formulated in DMSO, cited from earlier work"}, "in vitro fermentation": {"test_system": "in vitro fermentation", "settings": "doses of 0.25, 1 and 1.5% of feed dry matter; cited from earlier work"}, "[1]": {"settings": "at 20 degrees; cited from earlier work"}}, "note": "Like-named read-outs stand apart in the source and are kept apart here.", "data": [{"smiles": "BrC(Br)Br", "note": "[bromoform, tribromomethane]", "values": [{"measurement": "concentration of bromoform prepared in water", "setting": "Bromoform in water", "result": "3.0±0.10 mg bromoform per gram deionised water"}, {"measurement": "methane production in in vitro fermentation", "setting": "rumen fluid; 1 μM", "result": "does not significantly inhibit"}, {"measurement": "methane production in in vitro fermentation", "setting": "rumen fluid; doses of 5 μM, 10 μM and 25 μM", "result": "significantly inhibits"}, {"measurement": "methane production", "setting": "in vitro fermentation", "result": "no effect"}, {"measurement": "solubility in water", "setting": "[1]", "result": "less than 0.1 g bromofrm per 100 g water"}]}]}
